According to patent US9920096B2, “Bradykinin receptor modulators and use thereof” (Sepia Pesquisa e Desenvolvimento, priority 2013, dated 2018):

Legend:
[1] = system: Human umbilical vein endothelial cells (HUVEC); assay: In vitro angiogenesis assay on Matrigel (HUVEC); format: cell-based
Experimental: The angiogenesis assay was performed according to the protocol described in Paschoalin T, et al (2007).
Human umbilical vein endothelial cells (HUVEC) were maintained in complete RPMI 1640 medium, pH 7.2, supplemented with 10 mM N-2-hydroxyethylpiperazine-N′-2-ethanesulphonic acid (HEPES), 24 mM sodium bicarbonate, 10% heat-inactivated fetal calf serum (FCS) from Gibco (Minneapolis, Minn., USA) and 40 μg/mL gentamicin sulfate (Hipolabor Farmacéutica, Sabará, MG, Brazil).
In vitro angiogenesis assay on Matrigel was performed as described previously (Paschoalin et al, 2007). Briefly, BD Matrigel Matrix (B&D Biosciences, Bedford, Mass., USA) was thawed on ice, distributed in 96-well plates (50 μL per well) and allowed to polymerize for 1 h at 37° C. HUVECs (15×10^3 cells/well) were suspended in 100 μL of RPMI medium supplemented with 2% of FCS and added to each well in the presence of peptides with possible angiogenic activity. Angiogenic stimulators and inhibitors can be incubated with the cells before adding on the Matrigel if necessary. The plates were incubated at 37° C. for 18 h and then images were captured at 8× magnification with a Sony Cyber-shot camera coupled to a light inverted microscope. The number of pro-angiogenic structures (closed rings arising from dendritic extensions of endothelial cells) was counted from 4 different wells, and the average value was determined for each sample.
When stimulated by angiogenic factors, like BK, HUVEC cells undergo the development of pro-angiogenic structures and it allows studying angiogenic or anti-angiogenic molecules. The number of pro-angiogenic structures is counted and compared to a control and to BK. Generally, peptides of the invention derived from VEGF-A were named PepA, peptides from VEGF-C were named PepC, peptides from VEGF-D were named PepD and peptides from Placental Growth Factor were named PepPl.
* p<0.05, Student's “t” test, when comparing the mean number of pro-angiogenic structures from […] different wells of HUVEC cultures to the control.

[2] = system: HUVEC cells; assay: Intracellular calcium measurement in HUVEC cells (Fluo-3 fluorescence); format: cell-based, Human; conditions: for Bradykinin receptor activity indicated by calcium entry data: FIG. 5A-E, with and without B1/B2 antagonists
Experimental: The intracellular calcium measurement was performed according to the method described in Bagnaresi P et al, 2012 and Lungato L, et al., 2012.
Human umbilical vein endothelial cells were cultured in RPMI 1640 (GIBCO) containing 10% heat-inactivated fetal bovine serum (FBS), 24 mM sodium bicarbonate, […] gentamicin, 10 mM HEPES, pH 7.4 at 37° C. in a 5% CO2 humidified atmosphere. 5×10^4 cells were plated on 60 mm dishes (Costar 3260), and incubated in culture medium containing 5 μM Fluo-3 AM (Invitrogen Corporation, CA) for 40 min at 37° C. in a buffer containing the channel blocker Probenecid (40 μM), followed by 3 washes with culture medium to discard remaining extracellular probe. The cells were then placed into a culture chamber at 37° C. on the stage of a fluorescence microscope (Zeiss LSM 510 META) with excitation at 488 nm and emission at 505-530 nm. After calcium probe incubation, assays were performed with 1 uM bradykinin (BK), 10 uM PepD 2-10.
Fluorescence data were normalized as F/Fmax, where Fmax represents maximal intracellular fluorescence obtained with Ca2+ released from ER with addition of THG, a Ca2+ATPase inhibitor (Bagnaresi et al. 2012). THG blocks calcium pumps that recover cytosolic calcium from the cytoplasm. Under the action of THG the cytosolic calcium reaches its maximal concentration.
The software-based analysis allowed fluorescence imaging in the whole field or in a selected cell as a function of time (Image J 1.47h, NIH, USA). This was accomplished by defining areas of interest (e.g., an entire cell) on a given image frame and directing the software to construct a graphical representation of intensity over time (GraphPad Software 6 Prisma). Individual traces for typical 15 cells responses represent the intracellular calcium fluorescence changes in the analyzed cell population (Lungato et al. 2012).

[3] = FIG. 2 and 3, peptide at 10 μM, compared to BK 1 μM and control without peptide
[4] = FIG. 4A/4B, 1 μM and 10 μM, 24 h after initial stimulus
[5] = FIG. 5E, peptide 10 μM, in the presence of B1 receptor antagonist DesArg9-Leu8-BK

## FKPSCVPLM [PepA 1-9, derived from VEGF-A]
[1]; [3]
  Induction of angiogenesis in HUVEC angiogenesis assay: able to induce angiogenesis

## KPPCVNVFR [PepD 2-10, derived from VEGF-D]
[1]; FIG. 1, tested at 1 μM, 10 μM and 50 μM, effect at 1 and 10 μM, compared to control
  Effect on HUVEC angiogenesis assay (number of pro-angiogenic structures): pro-angiogenic effect
[1]; [3]
  Induction of angiogenesis in HUVEC angiogenesis assay: able to induce angiogenesis
[2]; peptide 10 μM
  Bradykinin receptor activity indicated by calcium entry data: B2 agonist
[2]; peptide 10 μM, listed as PepD2-10
  Bradykinin receptor activity indicated by calcium entry data: B1 bradykinin receptor activation
[2]; FIG. 5B, peptide 10 μM
  Cytoplasmic calcium in HUVEC (Fluo-3 fluorescence): induces an increase of cytoplasmatic calcium
[2]; FIG. 5C, HOE 140 10 μM for 10 min before peptide 10 μM
  Calcium entry induced by the peptide after previous addition of B2 receptor antagonist HOE140: does not block calcium entry but clearly shows a disruption in the pattern of calcium increase
[2]; FIG. 5D, DesArg9-Leu8-BK 10 μM for 10 min before peptide 10 μM
  Calcium entry induced by the peptide after previous addition of B1 receptor antagonist DesArg9-Leu8-BK: completely blocks the effect of PepD 2-10

## FKPPCVNVF [PepD 1-9, derived from VEGF-D]
[1]; [3]
  Induction of angiogenesis in HUVEC angiogenesis assay: able to induce angiogenesis

## KPPCVSVYR [PepC 2-10, derived from VEGF-C]
[1]; [4]
  Induction of angiogenesis in HUVEC angiogenesis assay: able to induce angiogenesis

## FKPPCVSVYR [PepC 1-10, derived from VEGF-C]
[1]; FIG. 4C, 0.1, 1.0 and 10 μM, 24 h after initial stimulus
  Induction of angiogenesis in HUVEC angiogenesis assay: able to induce angiogenesis

## KPSCVPLM [PepA 2-9, derived from VEGF-A]
[1]; [3]
  Induction of angiogenesis in HUVEC angiogenesis assay: able to induce angiogenesis

## FKPPCVNVFR [PepD 1-10, derived from VEGF-D]
[1]; [3]
  Induction of angiogenesis in HUVEC angiogenesis assay: able to induce angiogenesis

## FSPSCVSLLR [PepPl 1-10, derived from Placental Growth Factor]
[2]; [5]
  Cell fluorescence due to calcium entry in the cytoplasm of HUVEC: induces an increase in cell fluorescence
  Duration of transient fluorescence increase (cytoplasmic calcium increase): around 5 minutes

## KPPCVSVY [PepC 2-9, derived from VEGF-C]
[1]; [4]
  Induction of angiogenesis in HUVEC angiogenesis assay: able to induce angiogenesis
